{
  "source": "patent US5543147A",
  "about": "“Crystalline modification of 2,4-dioxo-6-methyl-1,2,3,4-tetrahydropyrimidine, a method for the preparation thereof and a medicinal preparation based on it” (Leonidov; Nikolai B., priority 1994, dated 1996)",
  "key": {"[1]": {"assay": "solubility of the crystalline powder", "assay_type": "physicochemical"}, "[2]": {"tested_on": "linear wounds", "assay": "wound-healing activity, model of linear wounds in rats (scar strength)", "assay_type": "in vivo, random-bred white male rats", "conditions": "for Strength of the scar: wounds pricked once daily for 3 days; for Strength of the scar / Increase of the scar strength as compared with control: claimed 0.25% solution, known 1% solution in 0.9% aqueous NaCl", "method": "(§1) The tests were carried out in 2 groups of 41 random-bred white male rats weighing 200±10 g. The experimental model in the 1st group were linear wounds of 50 mm long inflicted on the backs of the rats. Depending on the crystalline form of the tested compound used the rats were divided into 3 series. The first series was control--the wounds were pricked once daily with 0.9% aqueous solution of sodium chloride (0.5 ml) for 3 days. In the 2nd series the wounds were pricked by the same method with 1% solution of the known crystalline form of the said compound in 0.9% aqueous solution of sodium chloride. In the 3rd series the wounds were pricked by the same method with 0.25% solution of the claimed compound in 0.9% aqueous solution of sodium chloride.\n(§2) The results of trials of the wound-healing activity of the claimed and the known crystalline forms of the said compound were statistically treated with the confidence limit of 95%."}, "[3]": {"tested_on": "plane multilayer wounds", "assay": "wound-healing activity, plane multilayer wounds in rats", "assay_type": "in vivo, random-bred white male rats", "conditions": "for Rate of healing at 7 days / Rate of healing at 10 days / Rate of healing at 15 days / Mean time of falling off of crusts / Mean time of healing / Speeding up of healing: claimed 0.25% solution, known 1% solution in 0.9% aqueous NaCl", "method": "as §1\nPlane multilayer wounds of 400 mm^2 in area inflicted on the backs of rats were an experimental model in the 2nd group of experiments. The animals were also divided into 3 series. Here, the pricking of the wound was done by the same schedule as in the 1st group. The parameters of the wound process in the time course at 7, 10 and 15 days after wound inflicting were assessed by the methods of tensiometry, planimetry and clinical observations. The time of falling off of crusts and complete healing of the wounds was determined. The rate of the wound area decrease (V) in the course of healing was calculated by the formula [formula] wherein So is the initial wound area, mm^2,\nSt the wound area on the day of measurement t, mm^2.\nas §2"}, "[4]": {"assay": "acute toxicity", "assay_type": "in vivo, random-bred white mice, rats, and chinchilla rabbits", "method": "(§3) Trials of the toxicity of the claimed crystalline modification of the said compound were carried out comparing it with the known crystalline form of the said compound.\n(§4) Investigations of the general toxic effect of the claimed crystalline modification of 2,4-dioxo-6-methyl-1,2,3,4-tetrahydropyrimidine and the known crystalline form of the said compound were carried out in 3 […] species (random-bred white mice, rats, and chinchilla rabbits)."}, "[5]": {"assay": "subacute toxicity", "assay_type": "in vivo, random-bred white mice, rats, and chinchilla rabbits", "conditions": "subacute routes of inoculation", "method": "as §3, §4"}, "[6]": {"tested_on": "eyes", "assay": "safety of long-term subconjunctival inoculations (2-month toxicological experiment)", "assay_type": "in vivo, white rats and chinchilla rabbits", "method": "The study on the safety of long-term subconjunctival inoculations of the claimed modification in comparison with the known form of the said compound was carried out in a 2-month-long toxicological experiment in 148 mature male and female white rats and 49 male and female chinchilla rabbits.\nMale rats and rabbits were given subconjunctivally I drop each of 2%, 25% and 50% suspension of the claimed modification of the said compound into each eye once daily. The results obtained were compared with those in a group of male rats and rabbits given one drop of 2% suspension of the known form of the said compound into the eye. Besides, a 2% suspension of the claimed modification of the said compound was given to a group of female rats and rabbits which were compared with the control group. In a separate series of experiments in the same animals (rats, rabbits) carried out by the same schedule of a chronic experiment, the effect of the claimed pharmaceutical in the form of an eye ointment containing as the active substance the claimed modification of the said compound was determined. The results of this study confirm the data obtained in the studies of the effect of the claimed compound. Comparisons with the pharmaceutical containing the known form of the said compound gave analogous results."}, "[7]": {"tested_on": "allergenic and immunotoxic properties", "assay": "studies of the allergenic and immunotoxic properties"}, "[8]": {"assay": "rate of dissolution of the active substance (rotary basket)", "assay_type": "physicochemical", "conditions": "water for injections 1000 ml, 37±1° C, 50 rpm, 0.25 g, 0 to 45 min", "method": "The rate of dissolution of the active substance is determined in a \"rotary basket\" type DT-D6 apparatus (Erweka Co, BRD) at a mixing rate of 50 rpm. The dissolving medium is water for injections in a volume of 1000 ml at a temperature of 37±1° C. The content of the active substance in the solution is determined spectrophotometrically in a spectrophotometr No. 75 (Perkin-Elmer Co) at a wave length of 259 nm. For comparison, the known crystalline form of the said compound is used under identical conditions. The parameter for comparison is the constant of dissolution rate based on the mean results of the compound transition into solution from the amount thereof used (0.25 g) in the time of 0 to 45 min. The water for injections is used as a control."}, "[9]": {"tested_on": "wounds", "assay": "preliminary experiments on the wound-healing effect", "assay_type": "in vivo"}, "[10]": {"conditions": "prior-art description, cited from earlier work"}},
  "note": "Like-named read-outs stand apart in the source and are kept apart here.",
  "data": [
    {"smiles": "Cc1cc(O)nc(O)n1", "note": "[claimed modification, 2,4-dioxo-6-methyl-1,2,3,4-tetrahydropyrimidine]", "values": [
      {"measurement": "solubility in chloroform", "setting": "[1]; chloroform", "value": "practically insoluble"},
      {"measurement": "solubility in ethyl alcohol", "setting": "[1]; ethyl alcohol", "value": "poorly soluble"},
      {"measurement": "solubility in ethyl ether", "setting": "[1]; ethyl ether", "value": "practically insoluble"},
      {"measurement": "solubility in water", "setting": "[1]; water", "value": "poorly soluble"},
      {"measurement": "increase of rupture strength of linear wounds as compared with the control", "setting": "[2]; 7 days", "value": 90.4, "unit": "%"},
      {"measurement": "increase of rupture strength of linear wounds as compared with the known form of the compound", "setting": "[2]; 7 days, 0.25% vs 1% solution", "value": 43, "unit": "%"},
      {"measurement": "Strength of the scar", "setting": "[2]; 7 days", "value": "57.3 ± 9.0", "unit": "g/mm^2"},
      {"measurement": "Increase of the scar strength as compared with control", "setting": "[2]", "value": 90.4},
      {"measurement": "shortening of time of complete healing of plane wounds as compared with the control", "setting": "[3]", "value": 26.2, "unit": "%"},
      {"measurement": "shortening of time of complete healing of plane wounds as compared with the known form of the compound", "setting": "[3]; 0.25% vs 1% solution", "value": 12, "unit": "%"},
      {"measurement": "Rate of healing at 7 days", "setting": "[3]", "value": "61.6 ± 6.3", "unit": "%"},
      {"measurement": "Rate of healing at 10 days", "setting": "[3]", "value": "89.0 ± 4.9", "unit": "%"},
      {"measurement": "Rate of healing at 15 days", "setting": "[3]", "value": "95.4 ± 3.8", "unit": "%"},
      {"measurement": "Mean time of falling off of crusts", "setting": "[3]", "value": "8.6 ± 0.7", "unit": "days"},
      {"measurement": "Mean time of healing", "setting": "[3]", "value": "17.7 ± 1.6", "unit": "days"},
      {"measurement": "Speeding up of healing", "setting": "[3]", "value": 26.2, "unit": "%"},
      {"measurement": "class of toxicity (acute toxicity)", "setting": "[4]", "value": "Vth class of toxicity (practically non-toxic compounds)"},
      {"measurement": "class of toxicity (acute toxicity, intraperitoneal route)", "setting": "[4]; intraperitoneal", "value": "VI class of relatively harmless compounds"},
      {"measurement": "mean lethal dose", "setting": "[4]; subconjunctival route", "value": "could not be established"},
      {"measurement": "cumulative effect", "setting": "[5]", "value": "weak"},
      {"measurement": "microscopic changes in the eye", "setting": "[6]; large doses", "value": "lymphoid infiltrates were formed in the ciliary body, iris, and sometimes in the initial parts of the optic nerve, but these changes were reversible"},
      {"measurement": "macroscopic local inflammatory reactions of the eyes", "setting": "[6]; long-term administration", "value": "no macroscopic local inflammatory reactions of the eyes"},
      {"measurement": "formation of the tumor necrosis factor", "setting": "[7]", "value": "not to be conducive to the formation of the tumor necrosis factor"},
      {"measurement": "functional activity of the B-cell immunity", "setting": "[7]", "value": "no effect on the functional activity of the B-cell immunity"},
      {"measurement": "functional activity of the Te-cell immunity", "setting": "[7]", "value": "not to inhibit the functional activity of the Te-cell immunity"},
      {"measurement": "specific leukocyte lysis", "setting": "[7]", "value": "no specific leukocyte lysis"},
      {"measurement": "specific reaction of leukocyte agglomeration", "setting": "[7]", "value": "no specific reaction of leukocyte agglomeration"},
      {"measurement": "allergenic and immunotoxic properties", "setting": "[7]; overall", "value": "no allergenic and immunotoxic properties"},
      {"measurement": "constant of the dissolution rate K", "setting": "[8]", "value": 0.025, "unit": "min⁻¹"},
      {"measurement": "concentration of solution at which significant (comparable) wound-healing effect was manifested", "setting": "[9]", "value": 0.25, "unit": "% by weight"}
    ]},
    {"smiles": "Cc1cc(O)nc(O)n1", "note": "[known form, 2,4-dioxo-6-methyl-1,2,3,4-tetrahydropyrimidine]", "values": [
      {"measurement": "Strength of the scar", "setting": "[2]; 7 days", "value": "40.1 ± 5.0", "unit": "g/mm^2"},
      {"measurement": "Increase of the scar strength as compared with control", "setting": "[2]", "value": 33.2},
      {"measurement": "Rate of healing at 7 days", "setting": "[3]", "value": "57.5 ± 8.3", "unit": "%"},
      {"measurement": "Rate of healing at 10 days", "setting": "[3]", "value": "80.2 ± 2.0", "unit": "%"},
      {"measurement": "Rate of healing at 15 days", "setting": "[3]", "value": "90.2 ± 2.8", "unit": "%"},
      {"measurement": "Mean time of falling off of crusts", "setting": "[3]", "value": "9.6 ± 0.5", "unit": "days"},
      {"measurement": "Mean time of healing", "setting": "[3]", "value": "18.4 ± 1.6", "unit": "days"},
      {"measurement": "Speeding up of healing", "setting": "[3]", "value": 23.3, "unit": "%"},
      {"measurement": "class of toxicity (acute toxicity)", "setting": "[4]", "value": "slightly higher toxicity, although they belong to the same group"},
      {"measurement": "constant of the dissolution rate K", "setting": "[8]", "value": 0.18, "unit": "min⁻¹"},
      {"measurement": "concentration of solution at which significant (comparable) wound-healing effect was manifested", "setting": "[9]", "value": 1, "unit": "% by weight"},
      {"measurement": "solubility in chloroform", "setting": "[10]; chloroform", "value": "insoluble"},
      {"measurement": "solubility in ether", "setting": "[10]; ether", "value": "insoluble"},
      {"measurement": "solubility in ethyl alcohol", "setting": "[10]; ethyl alcohol", "value": "poorly soluble"},
      {"measurement": "solubility in water", "setting": "[10]; water", "value": "poorly soluble"}
    ]}
  ]
}
